{"source": "patent US11773391B2", "about": "“Therapeutic and diagnostic target for SARS-CoV-2 and COVID-19” (priority 2020, dated 2023)", "system": "NCOA7", "format": "cell-based, human", "conditions": "ECs, FIGS. 3A-3B", "note": "Entries after “also recorded” stand apart in the source; their conditions may differ."}
{"compound": "N#CCNC(=O)c1ccc(-c2ccnc(Nc3ccc(N4CCOCC4)cc3)n2)cc1", "note": "[momelotinib, Momelotinib]", "values": [{"measurement": "NCOA7 expression (IL-1β-mediated upregulation of NCOA7)", "result": "abrogated the IL-1β-mediated upregulation of NCOA7; also recorded: attenuates NCOA7 expression"}]}
